For orientation: inhibition means the drop in the measured response relative to a control, in per cent.

The source of these data is publication PMC7663272, “Discovery of Tricyclic Pyranochromenone as Novel Bruton’s Tyrosine Kinase Inhibitors with In Vivo Antirheumatic Activity” (International Journal of Molecular Sciences, 2020).

The target in one data set is T1, ERBB2 (Homo sapiens, UniProt P04626).
T1 construct: purchased Reaction Biology Corporation
The data set can be described thus: HotSpot kinase enzymatic assay, ERBB2. The data set is classed as biochemical. The note with it: mean of two experiments. The protocol: (§1) Therefore, efforts have focused on developing new compounds with good selectivity profiles. […] Compound 8 was selective against BTK. The biochemical activities of compound 8 differed among TEC family kinases. […] The inhibitory potential of compound 8 differed between members of the EGFR family. […] The inhibitory activity of compound 8 against JAK3 was also low.
(§2) Kinase enzymatic assays for BTK, BMX, TXK, TEC, ITK, EGFR, ERBB2, ERBB4, and JAK3 were performed at Reaction Biology Corporation (www.reactionbiology.com, Malvern, PA, USA) using the HotSpot assay platform. Briefly, specific kinase/substrate pairs and the required cofactors were prepared in a reaction buffer comprising 20 mM HEPES (pH 7.5), 10 mM MgCl2, 1 mM EGTA, 0.02% Brij35, 0.02 mg/mL BSA, 0.1 mM Na3VO4, 2 mM DTT, and 1% DMSO. The compounds were added to the reaction mixture and allowed to incubate. Approximately 20 min later, a mixture of ATP (Sigma-Aldrich, St. Louis, MO, USA) and ^33P ATP (PerkinElmer, Waltham, MA, USA) was added to the reaction mixture at a final concentration of 10 μM. The reactions were performed at room temperature for 120 min; subsequently, the reactions were spotted onto P81 ion exchange filter papers (Whatman Inc., Maidstone, UK). Any unbound phosphate was removed by thoroughly washing the filter papers with 0.75% phosphoric acid. […]

A further data set has as its target T2, JAK3 (Homo sapiens, UniProt P52333).
T2 construct: purchased Reaction Biology Corporation
T2 sequence (P52333 1-1124): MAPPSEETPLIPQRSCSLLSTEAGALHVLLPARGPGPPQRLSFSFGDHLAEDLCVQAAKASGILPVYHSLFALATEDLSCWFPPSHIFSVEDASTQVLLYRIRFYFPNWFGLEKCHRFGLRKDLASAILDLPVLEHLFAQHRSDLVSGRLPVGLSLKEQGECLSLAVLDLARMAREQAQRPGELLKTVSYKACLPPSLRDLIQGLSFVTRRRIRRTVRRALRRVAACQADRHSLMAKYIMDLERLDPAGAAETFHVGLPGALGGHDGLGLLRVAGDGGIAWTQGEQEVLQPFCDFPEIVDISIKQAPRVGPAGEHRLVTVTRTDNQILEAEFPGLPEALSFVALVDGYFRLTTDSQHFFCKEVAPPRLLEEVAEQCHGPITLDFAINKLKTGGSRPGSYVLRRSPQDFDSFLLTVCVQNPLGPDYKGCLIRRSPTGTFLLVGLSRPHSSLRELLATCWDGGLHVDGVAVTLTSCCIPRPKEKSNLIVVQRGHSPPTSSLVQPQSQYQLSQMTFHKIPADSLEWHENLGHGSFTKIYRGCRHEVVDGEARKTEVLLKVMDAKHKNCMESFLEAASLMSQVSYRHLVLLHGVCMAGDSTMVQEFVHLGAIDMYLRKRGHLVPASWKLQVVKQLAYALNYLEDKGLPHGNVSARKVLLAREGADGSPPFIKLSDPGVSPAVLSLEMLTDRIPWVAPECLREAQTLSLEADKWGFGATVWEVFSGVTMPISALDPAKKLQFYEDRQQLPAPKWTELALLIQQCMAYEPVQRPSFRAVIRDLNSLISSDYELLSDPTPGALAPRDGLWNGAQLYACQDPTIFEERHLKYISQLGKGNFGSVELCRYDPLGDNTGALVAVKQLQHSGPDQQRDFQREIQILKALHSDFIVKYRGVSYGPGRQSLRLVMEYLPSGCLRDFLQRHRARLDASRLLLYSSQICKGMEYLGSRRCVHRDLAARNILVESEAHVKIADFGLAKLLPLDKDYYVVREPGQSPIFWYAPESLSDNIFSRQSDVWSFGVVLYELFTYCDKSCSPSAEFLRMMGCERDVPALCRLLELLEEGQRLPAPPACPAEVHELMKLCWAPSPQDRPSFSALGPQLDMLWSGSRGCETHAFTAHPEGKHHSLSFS
In words: HotSpot kinase enzymatic assay, JAK3. Type of data set: biochemical. The protocol:
as §1, §2

In another data set the target is T3, BTK-C481S (Homo sapiens, UniProt Q06187, C481S).
T3 construct: purchased Reaction Biology Corporation
T3 sequence (Q06187 whole entry C481S): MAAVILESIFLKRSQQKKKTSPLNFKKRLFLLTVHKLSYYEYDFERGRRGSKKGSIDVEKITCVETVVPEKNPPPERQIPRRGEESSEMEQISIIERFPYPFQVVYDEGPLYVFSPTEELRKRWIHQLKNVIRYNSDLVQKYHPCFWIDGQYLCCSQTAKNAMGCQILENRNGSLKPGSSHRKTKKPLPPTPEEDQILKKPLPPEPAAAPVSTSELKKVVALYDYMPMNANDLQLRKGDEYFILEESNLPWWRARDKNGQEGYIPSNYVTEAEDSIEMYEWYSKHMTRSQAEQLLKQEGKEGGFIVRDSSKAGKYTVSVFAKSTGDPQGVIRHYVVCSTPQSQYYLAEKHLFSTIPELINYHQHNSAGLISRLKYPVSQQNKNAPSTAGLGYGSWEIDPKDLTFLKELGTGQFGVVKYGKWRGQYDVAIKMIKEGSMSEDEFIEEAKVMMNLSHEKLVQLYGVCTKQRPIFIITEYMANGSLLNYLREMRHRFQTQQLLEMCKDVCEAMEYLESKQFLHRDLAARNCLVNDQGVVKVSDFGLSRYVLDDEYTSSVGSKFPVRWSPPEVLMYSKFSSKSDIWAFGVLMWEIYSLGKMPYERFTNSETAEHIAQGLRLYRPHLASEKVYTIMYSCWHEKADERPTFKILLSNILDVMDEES
In words: HotSpot kinase enzymatic assay, mutant BTK. The conditions noted are these: vs negative control (DMSO), mean of two separate experiments. The data set is classed as biochemical. The text has this: To confirm the role of the electrophilic warhead groups, the acryloyl group of compound 8 was replaced with methylacryloyl (11) and propionyl (12) groups, which are less electrophilic or lack an electrophilic feature. […] The significant difference in the inhibitory activity of compounds 8 and 12 could explain the critical role of the acryloyl moiety in potentiating the BTK inhibitory activity of compound 8. […] It was also confirmed by comparison of the inhibitory activity of the representative compounds (8–10) with electrophilic warheads against wild-type BTK (BTK-wt) and mutant BTK (BTK-C481S).
Kinase enzymatic assays for BTK, BMX, TXK, TEC, ITK, EGFR, ERBB2, ERBB4, and JAK3 were performed at Reaction Biology Corporation (www.reactionbiology.com, Malvern, PA, USA) using the HotSpot assay platform. Briefly, specific kinase/substrate pairs and the required cofactors were prepared in a reaction buffer comprising 20 mM HEPES (pH 7.5), 10 mM MgCl2, 1 mM EGTA, 0.02% Brij35, 0.02 mg/mL BSA, 0.1 mM Na3VO4, 2 mM DTT, and 1% DMSO. The compounds were added to the reaction mixture and allowed to incubate. Approximately 20 min later, a mixture of ATP (Sigma-Aldrich, St. Louis, MO, USA) and ^33P ATP (PerkinElmer, Waltham, MA, USA) was added to the reaction mixture at a final concentration of 10 μM. The reactions were performed at room temperature for 120 min; subsequently, the reactions were spotted onto P81 ion exchange filter papers (Whatman Inc., Maidstone, UK). Any unbound phosphate was removed by thoroughly washing the filter papers with 0.75% phosphoric acid. […] GraphPad Prism software was used to obtain the IC50 values and perform curve fitting.

The next data set concerns the target T4, CYP2C19 (Homo sapiens, UniProt P33261).
T4 construct: purchased Promega V9880
In words: P450-Glo CYP inhibition assay, CYP2C19. Type of data set: in vitro ADME. The protocol:
The potential for CYP450 inhibition (CYP1A2, 2C9, 2C19, 2D6, and […]) was assessed using Promega P450-Glo^TM CYP450 assay systems. Luciferin-ME served as the substrate for CYP1A2, and the inhibitor α-naphthoflavone was used as a positive control. Luciferin-H was used as the substrate for CYP2C9, and the inhibitor sulfaphenazole was used as a positive control. Luciferin-H EGE was selected as the substrate for CYP2C19, whereas the inhibitor amitriptyline served as a positive control. Luciferin-ME EGE was used as the substrate for CYP2D6, whereas the inhibitor quinidine served as a positive control. Luciferin-BE was used as the substrate for CYP3A4, whereas the inhibitor ketoconazole was used as a positive control. The assays were performed using the excitation and emission wavelengths recommended by the manufacturer. Briefly, a CYP enzyme and a P450-Glo™ substrate were combined in potassium phosphate (0.1 M KPO4) buffer, with or without a test compound of interest, and […]. The reaction was initiated by adding two volumes of 2 times concentrated NADPH regeneration system. […] Luminescence was subsequently measured using a Tecan Infinite M1000 PRO microplate reader (Tecan Group Ltd., Switzerland). The percent inhibition was calculated relative to that of the positive control at a fixed concentration. […]

T4 sequence (P33261 whole entry): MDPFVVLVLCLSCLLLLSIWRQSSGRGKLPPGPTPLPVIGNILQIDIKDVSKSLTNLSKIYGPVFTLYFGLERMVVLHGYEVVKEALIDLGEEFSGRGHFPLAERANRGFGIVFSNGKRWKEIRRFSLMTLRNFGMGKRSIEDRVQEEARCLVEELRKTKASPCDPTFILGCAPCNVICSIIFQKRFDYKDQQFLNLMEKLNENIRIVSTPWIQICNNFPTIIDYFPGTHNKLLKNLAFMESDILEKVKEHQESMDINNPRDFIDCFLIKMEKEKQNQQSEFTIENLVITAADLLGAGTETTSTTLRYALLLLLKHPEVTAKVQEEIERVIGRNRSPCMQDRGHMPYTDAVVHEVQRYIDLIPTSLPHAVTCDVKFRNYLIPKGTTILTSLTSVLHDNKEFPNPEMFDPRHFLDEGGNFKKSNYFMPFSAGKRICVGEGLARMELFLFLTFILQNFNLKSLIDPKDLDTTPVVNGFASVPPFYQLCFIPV
T1 sequence (P04626 23-1255): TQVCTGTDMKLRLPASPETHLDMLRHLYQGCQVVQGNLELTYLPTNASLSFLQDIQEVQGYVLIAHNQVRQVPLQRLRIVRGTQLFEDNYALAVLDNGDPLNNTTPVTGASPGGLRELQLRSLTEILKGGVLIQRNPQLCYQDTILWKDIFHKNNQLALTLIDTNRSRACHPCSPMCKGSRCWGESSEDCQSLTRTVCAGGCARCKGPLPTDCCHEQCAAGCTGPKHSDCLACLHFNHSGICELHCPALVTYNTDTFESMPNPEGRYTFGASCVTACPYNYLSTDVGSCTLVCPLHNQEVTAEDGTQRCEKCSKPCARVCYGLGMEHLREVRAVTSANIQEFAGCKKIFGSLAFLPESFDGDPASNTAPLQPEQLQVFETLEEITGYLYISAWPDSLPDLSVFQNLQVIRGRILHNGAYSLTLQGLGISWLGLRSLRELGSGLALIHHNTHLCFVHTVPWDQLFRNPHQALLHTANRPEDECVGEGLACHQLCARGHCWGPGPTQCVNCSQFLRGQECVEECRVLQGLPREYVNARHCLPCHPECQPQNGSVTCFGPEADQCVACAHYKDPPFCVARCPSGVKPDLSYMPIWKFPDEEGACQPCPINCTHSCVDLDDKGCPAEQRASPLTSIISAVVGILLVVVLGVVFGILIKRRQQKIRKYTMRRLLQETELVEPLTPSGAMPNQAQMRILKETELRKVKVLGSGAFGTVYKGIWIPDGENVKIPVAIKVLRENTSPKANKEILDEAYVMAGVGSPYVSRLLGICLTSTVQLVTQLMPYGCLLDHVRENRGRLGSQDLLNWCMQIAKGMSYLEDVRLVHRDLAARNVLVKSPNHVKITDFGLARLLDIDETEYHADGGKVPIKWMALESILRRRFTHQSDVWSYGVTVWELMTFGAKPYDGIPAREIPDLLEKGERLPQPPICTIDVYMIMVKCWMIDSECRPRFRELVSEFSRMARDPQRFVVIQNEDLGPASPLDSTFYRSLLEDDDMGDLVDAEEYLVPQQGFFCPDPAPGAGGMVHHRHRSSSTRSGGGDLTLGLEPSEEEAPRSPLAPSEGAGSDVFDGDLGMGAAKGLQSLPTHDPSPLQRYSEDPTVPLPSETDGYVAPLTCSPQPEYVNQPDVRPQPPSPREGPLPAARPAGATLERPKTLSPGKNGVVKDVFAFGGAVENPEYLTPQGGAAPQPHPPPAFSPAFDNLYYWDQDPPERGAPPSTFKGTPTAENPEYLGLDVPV

As to `C=CC(=O)O[C@H]1Cc2cc3ccc(=O)oc3cc2OC1(C)C` [Compound 8, (7S)-(+)-Acrylic acid, 8,8-dimethyl-2-oxo-6,7-dihydro-2H,8H-pyrano [3,2-g]chromen-7-yl ester], the inhibition at 10 µM at ERBB2 came to 59.2%; on JAK3 (10 µM, mean of two experiments) it was 13.2%; on BTK-C481S it was 9.7%. For the same compound, the “inhibitory activity against JAK3 (in words)” value against JAK3 is listed as “low”. Further, at CYP2C19, the “CYP2C19 inhibition (in words)” value is reported as “moderately inhibited”. Also, at CYP2C19 (% inhibition of human CYP isozymes at 10 μM), the “CYP inhibition 2C19” value turned out to be 48.2%.
